Test results published in ChEMBL document CHEMBL3885861, “Open TG-GATES”.

Species on record: Rattus norvegicus
Experiment: Open TG-GATES - Regimen: Daily Repeat
Type: toxicity, organism-based, Sprague-Dawley
Set-up: regimen Daily Repeat, gender Male, age 6 weeks
Conditions: in vivo, po, route gavage; for ALP / ALT / AST / BUN / CRE / Ca / Cl / DBIL / GLC / IP / K / LDH / Na / PL / RALB / TBIL / TC / TG / TP / gamma-GTP / A/G: tissue Plasma; for APTT / Bas / Eos / Fbg / Hb / Ht / Lym / MCH / MCHC / MCV / Mono / Neu / PT / Plat / RBC / Ret / WBC: tissue Blood; for KIDNEY_L / KIDNEY_R / KIDNEY_TOTAL: tissue Kidney; for LIVER: tissue Liver
[1] = 0 mg/kg, […], dose level Control, time 28 day
[2] = 30 mg/kg, 72 h, dose level Low, time 3 day
[3] = 30 mg/kg, […], dose level Low, time 7 day
[4] = 30 mg/kg, […], dose level Low, time 14 day
[5] = 30 mg/kg, […], dose level Low, time 28 day

CCc1cc(C(N)=S)ccn1 [ETHIONAMIDE]
ALP [1]: 523.4 IU/L | ALT [1]: 31.6 IU/L | AST [1]: 55.6 IU/L | BUN [1]: 21.2 mg/dL | CRE [1]: 0.6 mg/dL | Ca [1]: 10.2 mg/dL | Cl [1]: 104.4 meq/L | DBIL [1]: 0.02 mg/dL | GLC [1]: 199.4 mg/dL | IP [1]: 6 mg/dL | K [1]: 4.6 meq/L | LDH [1]: 74.8 IU/L | Na [1]: 140.4 meq/L | PL [1]: 141.2 mg/dL | RALB [1]: 4 g/dL | TBIL [1]: 0.3 mg/dL | TC [1]: 69 mg/dL | TG [1]: 157.2 mg/dL | TP [1]: 6.2 g/dL | gamma-GTP [1]: 1.8 IU/L | TERMINAL_BW [2]: 240.4 g | APTT [2]: 17.3 s | Bas [2]: 0% | Eos [2]: 1.6% | Fbg [2]: 217.6 mg/dL | Hb [2]: 14.2 g/dL | Ht [2]: 42.2% | Lym [2]: 75% | MCH [2]: 21 pg | MCHC [2]: 33.7% | MCV [2]: 62.3 fL | Mono [2]: 6.6% | Neu [2]: 17.4% | PT [2]: 11.5 s | Plat [2]: 130.1 x10_4/uL | RBC [2]: 677.6 x10_4/ul | Ret [2]: 9.8% | WBC [2]: 94.2 x10_2/uL | KIDNEY_L [2]: 1.1 g | KIDNEY_R [2]: 1.1 g | KIDNEY_TOTAL [2]: 2.2 g | LIVER [2]: 12.2 g | A/G [2]: 1.8 | ALP [2]: 919.8 IU/L | ALT [2]: 34.4 IU/L | AST [2]: 60 IU/L | BUN [2]: 18 mg/dL | CRE [2]: 0.5 mg/dL | Ca [2]: 10.7 mg/dL | Cl [2]: 105.4 meq/L | DBIL [2]: 0.008 mg/dL | GLC [2]: 190.8 mg/dL | IP [2]: 7.2 mg/dL | K [2]: 4.6 meq/L | LDH [2]: 84 IU/L | Na [2]: 141.2 meq/L | PL [2]: 152.6 mg/dL | RALB [2]: 3.6 g/dL | TBIL [2]: 0.2 mg/dL | TC [2]: 80 mg/dL | TG [2]: 100.4 mg/dL | TP [2]: 5.6 g/dL | gamma-GTP [2]: 2 IU/L | TERMINAL_BW [3]: 280.6 g | TERMINAL_BW [4]: 330.7 g | TERMINAL_BW [5]: 406.9 g | APTT [3]: 16.9 s | Bas [3]: 0% | Eos [3]: 1% | Fbg [3]: 223.4 mg/dL | Hb [3]: 13.9 g/dL | Ht [3]: 41.1% | Lym [3]: 71% | MCH [3]: 21.2 pg | MCHC [3]: 34% | MCV [3]: 62.5 fL | Mono [3]: 9.4% | Neu [3]: 18.8% | PT [3]: 11.5 s | Plat [3]: 132.9 x10_4/uL | RBC [3]: 657.4 x10_4/ul | Ret [3]: 5% | WBC [3]: 131.2 x10_2/uL | APTT [4]: 16.8 s | Bas [4]: 0% | Eos [4]: 1.2% | Fbg [4]: 223 mg/dL | Hb [4]: 14.9 g/dL | Ht [4]: 43.6% | Lym [4]: 76.4% | MCH [4]: 20.7 pg | MCHC [4]: 34.1% | MCV [4]: 60.6 fL | Mono [4]: 4% | Neu [4]: 18% | PT [4]: 11.8 s | Plat [4]: 125.2 x10_4/uL | RBC [4]: 720.8 x10_4/ul | Ret [4]: 4.5% | WBC [4]: 124.4 x10_2/uL | APTT [5]: 17.4 s | Bas [5]: 0% | Eos [5]: 1.4% | Fbg [5]: 234.8 mg/dL | Hb [5]: 15.5 g/dL | Ht [5]: 45.4% | Lym [5]: 74% | MCH [5]: 19.8 pg | MCHC [5]: 34.2% | MCV [5]: 57.7 fL | Mono [5]: 6% | Neu [5]: 19.2% | PT [5]: 11.7 s | Plat [5]: 123.5 x10_4/uL | RBC [5]: 785.8 x10_4/ul | Ret [5]: 5.4% | WBC [5]: 154 x10_2/uL | KIDNEY_L [3]: 1.2 g | KIDNEY_R [3]: 1.2 g | KIDNEY_TOTAL [3]: 2.4 g | KIDNEY_L [4]: 1.4 g | KIDNEY_R [4]: 1.4 g | KIDNEY_TOTAL [4]: 2.7 g | KIDNEY_L [5]: 1.5 g | KIDNEY_R [5]: 1.6 g | KIDNEY_TOTAL [5]: 3.1 g | LIVER [3]: 13.8 g | LIVER [4]: 15 g | LIVER [5]: 17.7 g | A/G [3]: 1.6 | ALP [3]: 859.6 IU/L | ALT [3]: 31.8 IU/L | AST [3]: 57.2 IU/L | BUN [3]: 20 mg/dL | CRE [3]: 0.4 mg/dL | Ca [3]: 10.4 mg/dL | Cl [3]: 103.2 meq/L | DBIL [3]: 0.078 mg/dL | GLC [3]: 197.2 mg/dL | IP [3]: 6.8 mg/dL | K [3]: 5 meq/L | LDH [3]: 95.2 IU/L | Na [3]: 139.2 meq/L | PL [3]: 143.6 mg/dL | RALB [3]: 3.6 g/dL | TBIL [3]: 0.3 mg/dL | TC [3]: 71.8 mg/dL | TG [3]: 119.6 mg/dL | TP [3]: 5.9 g/dL | gamma-GTP [3]: 2 IU/L | A/G [4]: 2.3 | ALP [4]: 705.8 IU/L
